What all share (assay): Antifungal susceptibility testing (minimum inhibitory concentration), soyabean casein digest broth
Holding throughout (type): cell-based

In test [1] the test system is A. niger. As to conditions: Aspergillus niger; end points after 48 hours, visually / spectrophotometer; NI till x = no inhibition up to x; read-out: Activity against organisms In μg/ml, A. niger (minimum inhibitory concentration). The procedure: (§1) In vitro evaluation of antifungal activity can be performed by determining the minimum inhibitory concentration. Anti-fungal susceptibility testing of these anti-fungal compounds was done by conventional method using soyabean casein digest broth. Known anti-fungal agents like Fluconazole and amphotericin-B were used as positive control. End points were determined after 48 hours visually and by using Spectrophotometer wherever necessary. Different dilutions were tried and the set of experiments.

In test [2] the test system is C. albicans. As to conditions: Candida albicans; end points after 48 hours, visually / spectrophotometer; NI till x = no inhibition up to x; read-out: Activity against organisms In μg/ml, C. albicans (minimum inhibitory concentration). The method, then:
as §1

The test system of test [3] is F. proliferatum. As to conditions: Fusarium proliferatum; end points after 48 hours, visually / spectrophotometer; NI till x = no inhibition up to x; read-out: Activity against organisms In μg/ml, F. proliferatum (minimum inhibitory concentration). The method, then:
as §1

In brackets after ≈: the same amount, converted by molar mass.

With `COc1ccc(C2=CC(COC(=O)c3cccc(I)c3)OC2=O)cc1Br` (stereo not drawn) [1JE, 4-(3-bromo-4-methoxyphenyl)-5-oxo-2,5-dihydrofuran-2-ylmethyl 3-iodobenzoate], the MIC in test [1], in test [2] and in test [3] was more than 2 µg/mL throughout.
Regarding `COc1ccc(C2=CC(COC(=O)c3ccccc3)OC2=O)cc1Br` (stereo not drawn) [1AE, 3-bromo-4-methoxyphenyl-5-benzoyloxymethyl-2H,5H-furan-2-one], the MIC in test [1], in test [2] and in test [3] was more than 2 µg/mL throughout.
On to `O=C1OC(COC(=O)c2cccs2)C=C1c1cccc(Cl)c1` (stereo not drawn) [1DB, 4-(3-chlorophenyl)-5-oxo-2,5-dihydrofuran-2-ylmethyl thiophene-2-carboxylate], for which the results for the MIC in test [1], in test [2] and in test [3] were 4 µg/mL (≈ 11.9 µM), 2 µg/mL (≈ 5.97 µM) and 1 µg/mL (≈ 2.99 µM), respectively.
Regarding `O=C1OC(COC(=O)c2ccc[nH]2)C=C1c1cccc(Br)c1` (stereo not drawn) [1KC, 4-(3-bromophenyl)-5-oxo-2,5-dihydrofuran-2-ylmethyl pyrrole-2-carboxylate], the MIC lay within 2 to 4 µg/mL (≈ 5.52 to 11 µM) in test [1], 1 to 2 µg/mL (≈ 2.76 to 5.52 µM) in test [2] and 1 to 2 µg/mL (≈ 2.76 to 5.52 µM) in test [3].
`O=C(CCCCl)OCC1C=C(c2cccc(Br)c2)C(=O)O1` (stereo not drawn) [1HC, 4-(3-bromophenyl)-5-oxo-2,5-dihydrofuran-2-ylmethyl 4-chlorobutyrate]: the values for the MIC in test [1], in test [2] and in test [3] were 4 to 8 µg/mL (≈ 10.7 to 21.4 µM), 1 to 2 µg/mL (≈ 2.68 to 5.35 µM) and 1 to 2 µg/mL (≈ 2.68 to 5.35 µM), respectively.
In the case of `C=CCC(=O)OCC1C=C(c2ccc(OC)c(Br)c2)C(=O)O1` (stereo not drawn) [1CE, 3-bromo-4-methoxyphenyl-5-allyloyloxymethyl-2H,5H-furan-2-one], the MIC was more than 8 µg/mL in test [1], 2 to 4 µg/mL (≈ 5.45 to 10.9 µM) in test [2] and more than 8 µg/mL in test [3].
With `O=C(CCCl)OCC1C=C(c2cccc(Cl)c2)C(=O)O1` (stereo not drawn) [1GB, 4-(3-chlorophenyl)-5-oxo-2,5-dihydrofuran-2-ylmethyl 3-chloropropionate], the MIC is 2 µg/mL (≈ 6.35 µM) in test [1], 2 µg/mL (≈ 6.35 µM) in test [2] and 4 µg/mL (≈ 12.7 µM) in test [3].
`O=C(CCCl)OCC1C=C(c2cccc(Br)c2)C(=O)O1` (stereo not drawn) [1GC, 4-(3-bromophenyl)-5-oxo-2,5-dihydrofuran-2-ylmethyl 3-chloropropionate]: the MIC in test [1] amounted to 4 µg/mL (≈ 11.1 µM); in test [2] it was 2 µg/mL (≈ 5.56 µM); in test [3], 2 µg/mL (≈ 5.56 µM).
Regarding `C=CCC(=O)OCC1C=C(c2cccc(Br)c2)C(=O)O1` (stereo not drawn) [1CC, 3-bromophenyl-5-allyloyloxymethyl-2H,5H-furan-2-one], the results for the MIC in test [1], in test [2] and in test [3] were 8 µg/mL (≈ 23.7 µM), 4 µg/mL (≈ 11.9 µM) and 2 µg/mL (≈ 5.93 µM), respectively.
For the compound `O=C1OC(COC(=O)c2cc(Br)c(Br)s2)C=C1c1cccc(Cl)c1` (stereo not drawn) [1FB, 4-(3-chlorophenyl)-5-oxo-2,5-dihydrofuran-2-ylmethyl 4,5-dibromothiophene-2-carboxylate], the values for the MIC in test [1], in test [2] and in test [3] were 2 to 4 µg/mL (≈ 4.06 to 8.12 µM), 1 to 2 µg/mL (≈ 2.03 to 4.06 µM) and 1 to 2 µg/mL (≈ 2.03 to 4.06 µM), respectively.
For the compound `O=C1OC(COC(=O)c2cccc(I)c2)C=C1c1cccc(Cl)c1` (stereo not drawn) [1JB, 4-(3-chlorophenyl)-5-oxo-2,5-dihydrofuran-2-ylmethyl 3-iodobenzoate], the MIC in test [1], in test [2] and in test [3] was more than 2 µg/mL throughout.
`CC(=O)OCC1C=C(c2cccc(F)c2)C(=O)O1` (stereo not drawn) [1BD, 3-fluorophenyl-5-acetxymethyl-2H,5H-furan-2-one]: the MIC in test [1], in test [2] and in test [3] was 1 to 2 µg/mL (≈ 4 to 7.99 µM) throughout.
For the compound `O=C1OC(COC(=O)c2cc(Br)c(Br)s2)C=C1c1ccc(Cl)c(Cl)c1` (stereo not drawn) [1FA, 4-(3,4-dichlorophenyl)-5-oxo-2,5-dihydrofuran-2-ylmethyl 4,5-dibromothiophene-2-carboxylate], the MIC in test [1], in test [2] and in test [3] was more than 4 µg/mL throughout.
Regarding `COc1ccc(C2=CC(COC(C)=O)OC2=O)cc1Br` (stereo not drawn) [1BE, 3-bromo-4-methoxyphenyl-5-acetoxymethyl-2H,5H-furan-2-one], the MIC in test [1] lay in the range of 4 to 8 µg/mL (≈ 11.7 to 23.4 µM); in test [2], 2 to 4 µg/mL (≈ 5.86 to 11.7 µM); in test [3] it was 8 to 16 µg/mL (≈ 23.4 to 46.9 µM).
Regarding `O=C1OC(COC(=O)c2ccccc2)C=C1c1ccc(Cl)c(Cl)c1` (stereo not drawn) [1AA, 3,4-dichlorophenyl-5-benzoyloxymethyl-2H,5H-furan-2-one], the MIC in test [1] stood at 2 µg/mL (≈ 5.51 µM); in test [2], 4 µg/mL (≈ 11 µM); in test [3], 1 µg/mL (≈ 2.75 µM).
Consider `O=C(CCCCl)OCC1C=C(c2cccc(Cl)c2)C(=O)O1` (stereo not drawn) [1HB, 4-(3-chlorophenyl)-5-oxo-2,5-dihydrofuran-2-ylmethyl 4-chlorobutyrate], for which the MIC in test [1] lay in the range of 2 to 4 µg/mL (≈ 6.08 to 12.2 µM); in test [2], 1 to 2 µg/mL (≈ 3.04 to 6.08 µM); in test [3] it was 1 to 2 µg/mL (≈ 3.04 to 6.08 µM).
Turning to `O=C1OC(COC(=O)c2cc(Br)c(Br)s2)C=C1c1cccc(Br)c1` (stereo not drawn) [1FC, 4-(3-bromophenyl)-5-oxo-2,5-dihydrofuran-2-ylmethyl 4,5-dibromothiophene-2-carboxylate], the MIC in test [1] was 2 to 4 µg/mL (≈ 3.72 to 7.45 µM); in test [2], 1 to 2 µg/mL (≈ 1.86 to 3.72 µM); in test [3], 1 to 2 µg/mL (≈ 1.86 to 3.72 µM).
Take `O=C1OC(COC(=O)c2cccs2)C=C1c1cccc(Br)c1` (stereo not drawn) [1DC, 4-(3-bromophenyl)-5-oxo-2,5-dihydrofuran-2-ylmethyl thiophene-2-carboxylate]: the MIC in test [1] came out at 8 µg/mL (≈ 21.1 µM); in test [2], 2 µg/mL (≈ 5.27 µM); in test [3] it was 2 µg/mL (≈ 5.27 µM).
Turning to `CC(=O)OCC1C=C(c2cccc(Br)c2)C(=O)O1` (stereo not drawn) [1BC, 3-bromophenyl-5-acetxymethyl-2H,5H-furan-2-one], the MIC was 4 µg/mL (≈ 12.9 µM) in test [1], 2 µg/mL (≈ 6.43 µM) in test [2] and 2 µg/mL (≈ 6.43 µM) in test [3].
For the compound `O=C1OC(COC(=O)c2ccccc2)C=C1c1cccc(Cl)c1` (stereo not drawn) [1AB, 3-chlorophenyl-5-benzoyloxymethyl-2H,5H-furan-2-one], the values for the MIC in test [1], in test [2] and in test [3] were 2 µg/mL (≈ 6.08 µM), 2 µg/mL (≈ 6.08 µM) and 0.5 µg/mL (≈ 1.52 µM), respectively.
Regarding `O=C1OC(COC(=O)c2ccccc2)C=C1c1cccc(F)c1` (stereo not drawn) [1AD, 3-fluorophenyl-5-benzoyloxymethyl-2H,5H-furan-2-one], the MIC in test [1], in test [2] and in test [3] was 1 to 2 µg/mL (≈ 3.2 to 6.4 µM) each time.
In the case of `COc1ccc(C2=CC(COC(=O)c3cccs3)OC2=O)cc1Br` (stereo not drawn) [1DE, 4-(3-bromo-4-methoxyphenyl)-5-oxo-2,5-dihydrofuran-2-ylmethyl thiophene-2-carboxylate], the MIC in test [1], in test [2] and in test [3] was more than 2 µg/mL throughout.
As for `O=C1OC(COC(=O)c2ccsc2)C=C1c1ccc(Cl)c(Cl)c1` (stereo not drawn) [1EA, 4-(3,4-dichlorophenyl)-5-oxo-2,5-dihydrofuran-2-ylmethyl thiophene-3-carboxylate], the MIC stood at 1 µg/mL (≈ 2.71 µM) in test [1], 2 µg/mL (≈ 5.42 µM) in test [2] and 2 µg/mL (≈ 5.42 µM) in test [3].
For the compound `COc1ccc(C2=CC(COC(=O)c3cc(Br)c(Br)s3)OC2=O)cc1Br` (stereo not drawn) [FE, 4-(3-bromo-4-methoxyphenyl)-5-oxo-2,5-dihydrofuran-2-ylmethyl 4,5-dibromothiophene-2-carboxylate], the MIC was more than 4 µg/mL in test [1], 4 to 8 µg/mL (≈ 7.05 to 14.1 µM) in test [2] and more than 4 µg/mL in test [3].
Consider `O=C1OC(COC(=O)c2cccc(I)c2)C=C1c1cccc(Br)c1` (stereo not drawn) [1JC, 4-(3-bromophenyl)-5-oxo-2,5-dihydrofuran-2-ylmethyl 3-iodobenzoate], for which the MIC in test [1] was more than 4 µg/mL; in test [2], 2 to 4 µg/mL (≈ 4.01 to 8.01 µM); in test [3], more than 4 µg/mL.
As to `O=C(CCCCl)OCC1C=C(c2cccc(F)c2)C(=O)O1` (stereo not drawn) [1HD, 4-(3-fluorophenyl)-5-oxo-2,5-dihydrofuran-2-ylmethyl 4-chlorobutyrate], the MIC in test [1], in test [2] and in test [3] was 1 to 2 µg/mL (≈ 3.2 to 6.4 µM) each time.
As to `COc1ccc(C2=CC(COC(=O)c3ccsc3)OC2=O)cc1Br` (stereo not drawn) [1EE, 4-(3-bromo-4-methoxyphenyl)-5-oxo-2,5-dihydrofuran-2-ylmethyl thiophene-3-carboxylate], the MIC in test [1], in test [2] and in test [3] was more than 2 µg/mL in each case.
For the compound `C=CCC(=O)OCC1C=C(c2cccc(Cl)c2)C(=O)O1` (stereo not drawn) [1CB, 3-chlorophenyl-5-allyloyloxymethyl-2H,5H-furan-2-one], the MIC in test [1] worked out at 8 µg/mL (≈ 27.3 µM); in test [2] it was 4 µg/mL (≈ 13.7 µM); in test [3], 2 µg/mL (≈ 6.83 µM).
In the case of `O=C(CCCl)OCC1C=C(c2ccc(Cl)c(Cl)c2)C(=O)O1` (stereo not drawn) [1GA, 4-(3,4-dichlorophenyl)-5-oxo-2,5-dihydrofuran-2-ylmethyl 3-chloropropionate], the MIC in test [1] stood at 2 µg/mL (≈ 5.72 µM); in test [2] it was 4 µg/mL (≈ 11.4 µM); in test [3] it was 2 µg/mL (≈ 5.72 µM).
As for `O=C1OC(COC(=O)c2ccccc2)C=C1c1cccc(Br)c1` (stereo not drawn) [1AC, 3-bromophenyl-5-benzoyloxymethyl-2H,5H-furan-2-one], the MIC is 4 µg/mL (≈ 10.7 µM) in test [1], 2 µg/mL (≈ 5.36 µM) in test [2] and 0.5 µg/mL (≈ 1.34 µM) in test [3].
For `COc1ccc(C2=CC(COC(=O)CCCCCl)OC2=O)cc1Br` (stereo not drawn) [1IE, 4-(3-bromo-4-methoxyphenyl)-5-oxo-2,5-dihydrofuran-2-ylmethyl 5-chlorovalerate] the same measures were more than 8 µg/mL, more than 8 µg/mL and more than 8 µg/mL.
Consider `COc1ccc(C2=CC(COC(=O)CCCCl)OC2=O)cc1Br` (stereo not drawn) [1HE, 4-(3-bromo-4-methoxyphenyl)-5-oxo-2,5-dihydrofuran-2-ylmethyl 4-chlorobutyrate], for which the MIC in test [1], in test [2] and in test [3] was more than 4 µg/mL throughout.
For `C=CCC(=O)OCC1C=C(c2ccc(Cl)c(Cl)c2)C(=O)O1` (stereo not drawn) [1CA, 3,4-dichlorophenyl-5-allyloyloxymethyl-2H,5H-furan-2-one], the MIC in test [1] was found to be 1 µg/mL (≈ 3.06 µM); in test [2], 2 µg/mL (≈ 6.11 µM); in test [3] it was 1 µg/mL (≈ 3.06 µM).

For the origin of these results see patent US20070259948A1, “Compounds with antifungal properties and process thereof” (priority 2006, published 2007).
